From ChEMBL document CHEMBL5724806, “Unraveling interindividual differences and functional consequences of gut microbial metabolism of immunosuppressants” (2024)

Tests used:
Assay type in all cases: ADME
[1] = The drug is tested on Bifidobacterium longum strain: DSM20088 for biotransformation under anaerobic condition. The drug concentrations were measured over 6 timepoints collected between 0 and 12 hours of incubation by liquid-chromatography-coupled mass spectrometry (LC–MS); parameters: dose 5 uM, timepoint 0, 1.5, 3, 6, 9, 12 hours; details: 5 µM
[2] = The drug is tested on Bacteroides caccae strain: DSM19024 for biotransformation under anaerobic condition. The drug concentrations were measured over 6 timepoints collected between 0 and 12 hours of incubation by liquid-chromatography-coupled mass spectrometry (LC–MS); parameters: dose 5 uM, timepoint 0, 1.5, 3, 6, 9, 12 hours; details: 5 µM
[3] = The drug is tested on Bacteroides stercoris strain: HM 1036 for biotransformation under anaerobic condition. The drug concentrations were measured over 6 timepoints collected between 0 and 12 hours of incubation by liquid-chromatography-coupled mass spectrometry (LC–MS); parameters: dose 5 uM, timepoint 0, 1.5, 3, 6, 9, 12 hours; details: 5 µM
[4] = The drug is tested on Bacteroides thetaiotaomicron strain: DSM2079 for biotransformation under anaerobic condition. The drug concentrations were measured over 6 timepoints collected between 0 and 12 hours of incubation by liquid-chromatography-coupled mass spectrometry (LC–MS); parameters: dose 5 uM, timepoint 0, 1.5, 3, 6, 9, 12 hours; details: 5 µM
[5] = The drug is tested on Parabacteroides distasonis strain: DSM20701 for biotransformation under anaerobic condition. The drug concentrations were measured over 6 timepoints collected between 0 and 12 hours of incubation by liquid-chromatography-coupled mass spectrometry (LC–MS); parameters: dose 5 uM, timepoint 0, 1.5, 3, 6, 9, 12 hours; details: 5 µM
[6] = The drug is tested on Blautia hansenii strain: DSM20583 for biotransformation under anaerobic condition. The drug concentrations were measured over 6 timepoints collected between 0 and 12 hours of incubation by liquid-chromatography-coupled mass spectrometry (LC–MS); parameters: dose 5 uM, timepoint 0, 1.5, 3, 6, 9, 12 hours; details: 5 µM
[7] = The drug is tested on Clostridium bolteae strain: DSM15670 for biotransformation under anaerobic condition. The drug concentrations were measured over 6 timepoints collected between 0 and 12 hours of incubation by liquid-chromatography-coupled mass spectrometry (LC–MS); parameters: dose 5 uM, timepoint 0, 1.5, 3, 6, 9, 12 hours; details: enterocloster bolteae, 5 µM
[8] = The drug is tested on Clostridium ramosum strain: DSM1402 for biotransformation under anaerobic condition. The drug concentrations were measured over 6 timepoints collected between 0 and 12 hours of incubation by liquid-chromatography-coupled mass spectrometry (LC–MS); parameters: dose 5 uM, timepoint 0, 1.5, 3, 6, 9, 12 hours; details: thomasclavelia ramosa, 5 µM
[9] = The drug is tested on Clostridium scindens strain: DSM5676 for biotransformation under anaerobic condition. The drug concentrations were measured over 6 timepoints collected between 0 and 12 hours of incubation by liquid-chromatography-coupled mass spectrometry (LC–MS); parameters: dose 5 uM, timepoint 0, 1.5, 3, 6, 9, 12 hours; details: 5 µM
[10] = The drug is tested on Dorea formicigenerans strain: DSM3992 for biotransformation under anaerobic condition. The drug concentrations were measured over 6 timepoints collected between 0 and 12 hours of incubation by liquid-chromatography-coupled mass spectrometry (LC–MS); parameters: dose 5 uM, timepoint 0, 1.5, 3, 6, 9, 12 hours; details: 5 µM
[11] = The drug is tested on Gemella haemolysans strain: DSM107751 for biotransformation under anaerobic condition. The drug concentrations were measured over 6 timepoints collected between 0 and 12 hours of incubation by liquid-chromatography-coupled mass spectrometry (LC–MS); parameters: dose 5 uM, timepoint 0, 1.5, 3, 6, 9, 12 hours; details: 5 µM
[12] = The drug is tested on Lactobacillus gasseri strain: DSM20243 for biotransformation under anaerobic condition. The drug concentrations were measured over 6 timepoints collected between 0 and 12 hours of incubation by liquid-chromatography-coupled mass spectrometry (LC–MS); parameters: dose 5 uM, timepoint 0, 1.5, 3, 6, 9, 12 hours; details: 5 µM
[13] = The drug is tested on Streptococcus salivarius strain: DSM20560 for biotransformation under anaerobic condition. The drug concentrations were measured over 6 timepoints collected between 0 and 12 hours of incubation by liquid-chromatography-coupled mass spectrometry (LC–MS); parameters: dose 5 uM, timepoint 0, 1.5, 3, 6, 9, 12 hours; details: 5 µM
[14] = The drug is tested on Escherichia coli strain: DSM27469 for biotransformation under anaerobic condition. The drug concentrations were measured over 6 timepoints collected between 0 and 12 hours of incubation by liquid-chromatography-coupled mass spectrometry (LC–MS); parameters: dose 5 uM, timepoint 0, 1.5, 3, 6, 9, 12 hours; details: 5 µM
[15] = The drug is tested on Actinomyces naeslundi strain: DSM43013 for biotransformation under microaerobic condition. The drug concentrations were measured over 6 timepoints collected between 0 and 12 hours of incubation by liquid-chromatography-coupled mass spectrometry (LC–MS); parameters: dose 5 uM, timepoint 0, 1.5, 3, 6, 9, 12 hours; details: actinomyces naeslundii, 5 µM
[16] = The drug is tested on Bifidobacterium longum strain: DSM20088 for biotransformation under microaerobic condition. The drug concentrations were measured over 6 timepoints collected between 0 and 12 hours of incubation by liquid-chromatography-coupled mass spectrometry (LC–MS); parameters: dose 5 uM, timepoint 0, 1.5, 3, 6, 9, 12 hours; details: 5 µM
[17] = The drug is tested on Gemella morbillorum strain: DSM20572 for biotransformation under microaerobic condition. The drug concentrations were measured over 6 timepoints collected between 0 and 12 hours of incubation by liquid-chromatography-coupled mass spectrometry (LC–MS); parameters: dose 5 uM, timepoint 0, 1.5, 3, 6, 9, 12 hours; details: 5 µM
[18] = The drug is tested on Lactobacillus paracasei strain: ATCC27092 for biotransformation under microaerobic condition. The drug concentrations were measured over 6 timepoints collected between 0 and 12 hours of incubation by liquid-chromatography-coupled mass spectrometry (LC–MS); parameters: dose 5 uM, timepoint 0, 1.5, 3, 6, 9, 12 hours; details: lacticaseibacillus paracasei, 5 µM
[19] = The drug is tested on Streptococcus anginosus strain: DSM20563 for biotransformation under microaerobic condition. The drug concentrations were measured over 6 timepoints collected between 0 and 12 hours of incubation by liquid-chromatography-coupled mass spectrometry (LC–MS); parameters: dose 5 uM, timepoint 0, 1.5, 3, 6, 9, 12 hours; details: 5 µM
[20] = The drug is tested on Streptococcus mitis strain: DSM12643 for biotransformation under microaerobic condition. The drug concentrations were measured over 6 timepoints collected between 0 and 12 hours of incubation by liquid-chromatography-coupled mass spectrometry (LC–MS); parameters: dose 5 uM, timepoint 0, 1.5, 3, 6, 9, 12 hours; details: 5 µM
[21] = The drug is tested on the gut metagenome community of A-02 with ENA study accession number: PRJEB31790 for biotransformation under anaerobic condition. The drug concentrations were measured over 7 timepoints collected between 0 and 12 hours of incubation by liquid-chromatography-coupled mass spectrometry (LC–MS); parameters: dose 5 uM, timepoint 0, 0.75, 1.5, 3, 6, 9, 12 hours; details: 5 µM
[22] = The drug is tested on the gut metagenome community of A-07 with ENA study accession number: PRJEB31790 for biotransformation under anaerobic condition. The drug concentrations were measured over 7 timepoints collected between 0 and 12 hours of incubation by liquid-chromatography-coupled mass spectrometry (LC–MS); parameters: dose 5 uM, timepoint 0, 0.75, 1.5, 3, 6, 9, 12 hours; details: 5 µM
[23] = The drug is tested on the gut metagenome community of T-05 with ENA study accession number: PRJEB31790 for biotransformation under anaerobic condition. The drug concentrations were measured over 7 timepoints collected between 0 and 12 hours of incubation by liquid-chromatography-coupled mass spectrometry (LC–MS); parameters: dose 5 uM, timepoint 0, 0.75, 1.5, 3, 6, 9, 12 hours; details: 5 µM
[24] = The drug is tested on the gut metagenome community of A-05 with ENA study accession number: PRJEB31790 for biotransformation under microaerobic condition. The drug concentrations were measured over 7 timepoints collected between 0 and 12 hours of incubation by liquid-chromatography-coupled mass spectrometry (LC–MS); parameters: dose 5 uM, timepoint 0, 0.75, 1.5, 3, 6, 9, 12 hours; details: 5 µM
[25] = The drug is tested on the gut metagenome community of P-03 with ENA study accession number: PRJEB31790 for biotransformation under microaerobic condition. The drug concentrations were measured over 7 timepoints collected between 0 and 12 hours of incubation by liquid-chromatography-coupled mass spectrometry (LC–MS); parameters: dose 5 uM, timepoint 0, 0.75, 1.5, 3, 6, 9, 12 hours; details: 5 µM
[26] = The drug is tested on the gut metagenome community of P-04 with ENA study accession number: PRJEB31790 for biotransformation under microaerobic condition. The drug concentrations were measured over 7 timepoints collected between 0 and 12 hours of incubation by liquid-chromatography-coupled mass spectrometry (LC–MS); parameters: dose 5 uM, timepoint 0, 0.75, 1.5, 3, 6, 9, 12 hours; details: 5 µM

With `C[C@]12C=CC(=O)C=C1CC[C@@H]1[C@@H]2[C@@H](O)C[C@@]2(C)[C@H]1CC[C@]2(O)C(=O)CO` [PREDNISOLONE] the “Bacterial Biotransformation” value [1] was “Compound NOT metabolized”, the “Bacterial Biotransformation” value [2] was “Compound NOT metabolized” and the “Bacterial Biotransformation” value [3] was “Compound NOT metabolized”. The “Bacterial Biotransformation” value [4] was “Compound NOT metabolized”, the “Bacterial Biotransformation” value [5] was “Compound NOT metabolized” and the “Bacterial Biotransformation” value [6] was “Compound NOT metabolized”. For the same compound, the “Bacterial Biotransformation” value [7] was “Compound NOT metabolized”, the “Bacterial Biotransformation” value [8] was “Compound NOT metabolized” and the “Bacterial Biotransformation” value [9] was “Compound metabolized”. For the same compound, the “Bacterial Biotransformation” value [10] was “Compound NOT metabolized”, the “Bacterial Biotransformation” value [11] was “Compound NOT metabolized” and the “Bacterial Biotransformation” value [12] was “Compound NOT metabolized”. The “Bacterial Biotransformation” value [13] was “Compound NOT metabolized”, the “Bacterial Biotransformation” value [14] was “Compound NOT metabolized” and the “Bacterial Biotransformation” value [15] was “Compound NOT metabolized”. The “Bacterial Biotransformation” value [16] was “Compound NOT metabolized”, the “Bacterial Biotransformation” value [17] was “Compound NOT metabolized” and the “Bacterial Biotransformation” value [18] was “Compound NOT metabolized”. For the same compound, the “Bacterial Biotransformation” value [19] was “Compound NOT metabolized”, the “Bacterial Biotransformation” value [20] was “Compound NOT metabolized” and the “Bacterial Biotransformation” value [21] was “Compound metabolized”. For the same compound, the “Bacterial Biotransformation” value [22] was “Compound metabolized”, the “Bacterial Biotransformation” value [23] was “Compound NOT metabolized” and the “Bacterial Biotransformation” value [24] was “Compound metabolized”. For the same compound, the “Bacterial Biotransformation” value [25] was “Compound metabolized” and the “Bacterial Biotransformation” value [26] was “Compound metabolized”.
In the case of `C[C@]12C=CC(=O)C=C1CC[C@@H]1[C@@H]2C(=O)C[C@@]2(C)[C@H]1CC[C@]2(O)C(=O)CO` [PREDNISONE], the “Bacterial Biotransformation” value [1] is reported as “Compound NOT metabolized”, the “Bacterial Biotransformation” value [2] is reported as “Compound NOT metabolized” and the “Bacterial Biotransformation” value [3] is reported as “Compound NOT metabolized”. For the same compound, the “Bacterial Biotransformation” value [4] was “Compound NOT metabolized”, the “Bacterial Biotransformation” value [5] was “Compound NOT metabolized” and the “Bacterial Biotransformation” value [6] was “Compound NOT metabolized”. The “Bacterial Biotransformation” value [7] was “Compound NOT metabolized”, the “Bacterial Biotransformation” value [8] was “Compound NOT metabolized” and the “Bacterial Biotransformation” value [9] was “Compound metabolized”. The “Bacterial Biotransformation” value [10] was “Compound NOT metabolized”, the “Bacterial Biotransformation” value [11] was “Compound NOT metabolized” and the “Bacterial Biotransformation” value [12] was “Compound NOT metabolized”. For the same compound, the “Bacterial Biotransformation” value [13] was “Compound NOT metabolized”, the “Bacterial Biotransformation” value [14] was “Compound NOT metabolized” and the “Bacterial Biotransformation” value [15] was “Compound NOT metabolized”. For the same compound, the “Bacterial Biotransformation” value [16] was “Compound NOT metabolized”, the “Bacterial Biotransformation” value [17] was “Compound NOT metabolized” and the “Bacterial Biotransformation” value [18] was “Compound NOT metabolized”. The “Bacterial Biotransformation” value [19] was “Compound NOT metabolized”, the “Bacterial Biotransformation” value [20] was “Compound NOT metabolized” and the “Bacterial Biotransformation” value [21] was “Compound metabolized”. The “Bacterial Biotransformation” value [22] was “Compound metabolized”, the “Bacterial Biotransformation” value [23] was “Compound metabolized” and the “Bacterial Biotransformation” value [24] was “Compound metabolized”. The “Bacterial Biotransformation” value [25] was “Compound metabolized” and the “Bacterial Biotransformation” value [26] was “Compound metabolized”.
In the case of `CNC(=C[N+](=O)[O-])NCCSCc1ccc(CN(C)C)o1` [RANITIDINE], the “Bacterial Biotransformation” value [1] is reported as “Compound NOT metabolized”, the “Bacterial Biotransformation” value [2] is reported as “Compound NOT metabolized” and the “Bacterial Biotransformation” value [3] is reported as “Compound NOT metabolized”. The “Bacterial Biotransformation” value [4] was “Compound NOT metabolized”, the “Bacterial Biotransformation” value [5] was “Compound NOT metabolized” and the “Bacterial Biotransformation” value [6] was “Compound NOT metabolized”. The “Bacterial Biotransformation” value [7] was “Compound NOT metabolized”, the “Bacterial Biotransformation” value [8] was “Compound NOT metabolized” and the “Bacterial Biotransformation” value [9] was “Compound NOT metabolized”. The “Bacterial Biotransformation” value [10] was “Compound NOT metabolized”, the “Bacterial Biotransformation” value [11] was “Compound NOT metabolized” and the “Bacterial Biotransformation” value [12] was “Compound NOT metabolized”. The “Bacterial Biotransformation” value [13] was “Compound NOT metabolized”, the “Bacterial Biotransformation” value [14] was “Compound NOT metabolized” and the “Bacterial Biotransformation” value [15] was “Compound NOT metabolized”. For the same compound, the “Bacterial Biotransformation” value [16] was “Compound NOT metabolized”, the “Bacterial Biotransformation” value [17] was “Compound NOT metabolized” and the “Bacterial Biotransformation” value [18] was “Compound NOT metabolized”. The “Bacterial Biotransformation” value [19] was “Compound NOT metabolized”, the “Bacterial Biotransformation” value [20] was “Compound metabolized” and the “Bacterial Biotransformation” value [21] was “Compound metabolized”. For the same compound, the “Bacterial Biotransformation” value [22] was “Compound NOT metabolized”, the “Bacterial Biotransformation” value [23] was “Compound NOT metabolized” and the “Bacterial Biotransformation” value [24] was “Compound NOT metabolized”. The “Bacterial Biotransformation” value [25] was “Compound NOT metabolized” and the “Bacterial Biotransformation” value [26] was “Compound NOT metabolized”.
